The test system of one experiment is Collagen 3 (COL3A1). As to the kind of experiment: TLDA gene expression in NHF: COL3A1. The experiment is classed as cell-based, human. The protocol:
(§1) The cell culture medium is removed and 250 μL of RLT lysis buffer (provided in the Nucleospin RNA trace kit, Macherey-Nagel) is added. The cells are scraped with a Cell Scraper and then the cell lysate is recovered in a 1.2 mL deepwell (provided in the Nucleospin RNA kit). The total RNAs are extracted according to the defined protocols.
(§2) The total RNA solutions obtained are assayed, and their quality checked, using a microplate reader, the spectrostarNANO (BMG Labtech) coupled to the MicrolabSTAR. This apparatus is connected to the computer controlling the Robotics platform and has the specific software for the analysis of the results (MARS software). The technique requires a 384-well microplate (LoBase), a positive control (RNA 250, AM7155, Thermofisher) to validate the pipetting performed by the robot as well as the values generated by the spectrostarNANO reader. • Synthesis of complementary DNA […]
(§3) Real-time quantitative PCR can be exploited if its efficiency is between 90% and 110%. For each sample, the number of cycles at which the signal appears is determined by the SDS 2.3 software. […]
(§4) In the TLDA RT-PCR method, quantification is performed using the comparative method of ΔΔCt. The relative quantification (RQ) values obtained correspond to the amplitude level (x times more or less than the control) of the expression compared with our control, here the non-irradiated. […]

For another experiment, the system named is Fibrillin 1 (FBN1). As to the kind of experiment: TLDA gene expression in NHF: FBN1. The experiment is classed as cell-based, human. Conditions: Vit C 50 μg/mL (positive control), control = 1. The method, then:
as §1, §2, §3, §4

The subject of the next experiment is Emilin 1 (Emilin1). As to the kind of experiment: TLDA gene expression in NHF: Emilin1. It counts as cell-based, human. The method, then:
as §1, §2, §3, §4

Experiment [1] has as its system Lysyl oxidase like 1 (LOXL1). Briefly: TLDA gene expression in NHF: LOXL1. Conditions: Vit C 50 μg/mL (positive control), control = 1. It counts as cell-based, human. The protocol:
as §1, §2, §3, §4

The next experiment deals with Collagen 5 (COL5A1). As to the kind of experiment: TLDA gene expression in NHF: COL5A1. It counts as cell-based, human. The protocol:
as §1, §2, §3, §4

For another experiment, the system named is Elastin (ELN). Briefly: TLDA gene expression in NHF: ELN. The experiment is classed as cell-based, human. Conditions: Vit C 50 μg/mL (positive control), control = 1. The method, then: as §1, §2, §3, §4
Another experiment relates to Collagen 1 (COL1A1). Briefly: TLDA gene expression in normal human fibroblasts (NHF): COL1A1. The experiment is classed as cell-based. The method, then:
as §1, §2, §3, §4

In experiment [2] the test system is Matrix Metalloproteinase 3 (MMP3). Briefly: TLDA gene expression in NHF: MMP3. It counts as cell-based, human. Conditions: Vit C 50 μg/mL (positive control), control = 1. The method, then:
as §1, §2, §3, §4

Experiment [3] relates to Procollagen C endopeptidase enhancer (PCOLCE). As to the kind of experiment: TLDA gene expression in NHF: PCOLCE. The experiment is classed as cell-based, human. The following applies: Vit C 50 μg/mL (positive control), control = 1. The protocol:
as §1, §2, §3, §4

Setting [4] is: Vit C 50 μg/mL (positive control), control = 1.

For the compound `O=C1O[C@H]([C@@H](O)CO)C(O)=C1O` [Vit C], in the experiment with Collagen 3 (COL3A1) (setting [4]), the “COL3A1 expression, RQ” value turned out to be 2.599. For the same compound, in the experiment on Collagen 3 (COL3A1) (Vit C (50 μg/mL)), the “increase of Collagen 3 expression” value is listed as “+160%”. Also, the “FBN1 expression, RQ” value in the experiment with Fibrillin 1 (FBN1) is recorded as 0.989. Also, the “Emilin1 expression, RQ” value in the experiment with Emilin 1 (Emilin1) (setting [4]) was 2.509. The “increase of Emilin 1 expression” value with Emilin 1 (Emilin1) (Vit C (50 μg/mL)) is on record as “+151%”. Moreover, in [1], the “LOXL1 expression, RQ” value worked out at 1.202. For the same compound, in the experiment on Collagen 5 (COL5A1) (setting [4]), the “COL5A1 expression, RQ” value is 1.911. Moreover, the “increase of Collagen 5 expression” value in the experiment with Collagen 5 (COL5A1) (Vit C (50 μg/mL)) was “+91%”. In addition, the “ELN expression, RQ” value in the experiment on Elastin (ELN) was determined as 1.016. The “COL1A1 expression, RQ” value in the experiment on Collagen 1 (COL1A1) (setting [4]) stood at 3.471. In addition, the “increase of Collagen 1 expression” value in the experiment on Collagen 1 (COL1A1) (Vit C (50 μg/mL)) is “+247%”. For the same compound, the “MMP3 expression, RQ” value in [2] came to 1.205. The “PCOLCE expression, RQ” value in [3] is recorded as 1.156.

Values taken from patent US20210369595A1, “Cosmetic composition comprising an aqueous extract of rose fruit” (L V M H RECHERCHE, priority 2018, published 2021).
